{"source": "patent US20210387992A1", "about": "“POLYMORPH FORM OF A MONOPHOSPHATE HYDRATE SALT OF A KNOWN TETRAHYDROISOQUINOLINE DERIVATIVE” (Pfizer Inc., priority 2019, published 2021)", "key": {"[1]": {"test": "Solid-state physical stability: PXRD after the DVS run / exposure to high RH", "type": "physicochemical", "settings": "for physical stability / structural change on water sorption (in words): DVS 0-90% RH, PXRD after the run", "description": "(§1) The hygroscopicity of the products of Reference Example 1 and Example 3 were tested using Dynamic Vapor Sorption (DVS). Surface Measurement Systems Ltd. Dynamic Vapour Sorption Advantage Equipment was used employing a 10% RH change at 25° C. starting at 40% RH and looping from 0% RH to 90% RH and back to 0% RH twice. […] Two full cycles from 0% RH to 90% RH were carried out. The percent mass increase with respect to the sample mass of the first exposure to 0% RH (dry weight) was calculated and is presented in Table 7. […] Also, a decrease in mass is noted at 80% RH consistent with a solid-state change, occurs at these conditions."}, "[2]": {"test": "Hygroscopicity by Dynamic Vapor Sorption (DVS)", "type": "physicochemical", "settings": "25° C.", "description": "as §1"}}, "note": "Where a name gives a salt, the structure may show the parent alone."}
{"smiles": "Cc1ncnc2c1ccn2[C@@H]1C[C@H](Oc2cc(C(F)F)c(F)c3c2CNCC3)[C@@H](O)[C@H]1O", "note": "[Phosphate, (1S,2S,3S,5R)-3-((6-(difluoromethyl)-5-fluoro-1,2,3,4-tetrahydroisoquinolin-8-yl)oxy)-5-(4-methyl-7H-pyrrolo[2,3-d]pyrimidin-7-yl)cyclopentane-1,2-diol monophosphate hydrate]", "values": [{"measurement": "physical stability / structural change on water sorption (in words)", "setting": "[1]; listed as Example 3 phosphate salt, monophosphate hydrate", "result": "no structural changes caused by the water sorption"}, {"measurement": "% Mass-Ref Dry mass", "setting": "[2]; 10% RH, monophosphate hydrate", "result": 3.4, "unit": "%"}, {"measurement": "% Mass-Ref Dry mass", "setting": "[2]; 20% RH, monophosphate hydrate", "result": 3.7, "unit": "%"}, {"measurement": "% Mass-Ref Dry mass", "setting": "[2]; 30% RH, monophosphate hydrate", "result": 3.9, "unit": "%"}, {"measurement": "% Mass-Ref Dry mass", "setting": "[2]; 40% RH, monophosphate hydrate", "result": 4.1, "unit": "%"}, {"measurement": "% Mass-Ref Dry mass", "setting": "[2]; 50% RH, monophosphate hydrate", "result": 4.3, "unit": "%"}, {"measurement": "% Mass-Ref Dry mass", "setting": "[2]; 60% RH", "result": 4.5, "unit": "%"}, {"measurement": "% Mass-Ref Dry mass", "setting": "[2]; 70% RH, listed as Example 3 phosphate salt, monophosphate hydrate", "result": 4.57, "unit": "%"}, {"measurement": "% Mass-Ref Dry mass", "setting": "[2]; 70% RH, monophosphate hydrate", "result": 4.6, "unit": "%"}, {"measurement": "% Mass-Ref Dry mass", "setting": "[2]; 80% RH, monophosphate hydrate", "result": 4.7, "unit": "%"}, {"measurement": "% Mass-Ref Dry mass", "setting": "[2]; 90% RH, monophosphate hydrate", "result": 4.8, "unit": "%"}]}
{"smiles": "Cc1ncnc2c1ccn2[C@@H]1C[C@H](Oc2cc(C(F)F)c(F)c3c2CNCC3)[C@@H](O)[C@H]1O", "note": "[di HCl, (1S,2S,3S,5R)-3-((6-(difluoromethyl)-5-fluoro-1,2,3,4-tetrahydroisoquinolin-8-yl)oxy)-5-(4-methyl-7H-pyrrolo[2,3-d]pyrimidin-7-yl)cyclopentane-1,2-diol (di) hydrochloride]", "values": [{"measurement": "physical stability / structural change on water sorption (in words)", "setting": "[1]; listed as di-HCL salt, hydrochloride", "result": "not physically stable"}, {"measurement": "relative humidity at which the amorphous salt crystallizes", "setting": "[1]; PXRD after DVS run, 25° C.", "result": "≥ 80", "unit": "% RH"}, {"measurement": "% Mass-Ref Dry mass", "setting": "[2]; 0% RH, relative to mass at first exposure to 0% RH", "result": 0.0, "unit": "%"}, {"measurement": "hygroscopicity (in words)", "setting": "[2]; 0-90% RH", "result": "very hygroscopic"}, {"measurement": "% Mass-Ref Dry mass", "setting": "[2]; 10% RH, hydrochloride", "result": 2.9, "unit": "%"}, {"measurement": "% Mass-Ref Dry mass", "setting": "[2]; 20% RH, hydrochloride", "result": 4.0, "unit": "%"}, {"measurement": "% Mass-Ref Dry mass", "setting": "[2]; 30% RH, hydrochloride", "result": 4.9, "unit": "%"}, {"measurement": "% Mass-Ref Dry mass", "setting": "[2]; 40% RH, hydrochloride", "result": 6.0, "unit": "%"}, {"measurement": "% Mass-Ref Dry mass", "setting": "[2]; 50% RH, hydrochloride", "result": 7.6, "unit": "%"}, {"measurement": "% Mass-Ref Dry mass", "setting": "[2]; 60% RH, hydrochloride", "result": 10.4, "unit": "%"}, {"measurement": "% Mass-Ref Dry mass", "setting": "[2]; 70% RH, hydrochloride", "result": 14.7, "unit": "%"}, {"measurement": "% Mass-Ref Dry mass", "setting": "[2]; 70% RH, listed as diHCl salt, hydrochloride", "result": 14.7, "unit": "%"}, {"measurement": "% Mass-Ref Dry mass", "setting": "[2]; 80% RH, hydrochloride", "result": 12.0, "unit": "%"}, {"measurement": "% Mass-Ref Dry mass", "setting": "[2]; 90% RH, hydrochloride", "result": 12.0, "unit": "%"}]}
